{"source": "the kinase profiling compilation of Christmann-Franck et al. (2016)", "experiment_in_all_cases": "radiometric filter-binding kinase assay, Kinaseprofiler", "key": {"LYN (human)": {"biological_target": "LYN (human) (UniProt P07948)", "settings": "ATP 70 µM"}, "HIPK3 (human)": {"biological_target": "HIPK3 (human) (UniProt Q9H422)", "settings": "ATP 15 µM"}, "TLK2 (human)": {"biological_target": "TLK2 (human) (UniProt Q86UE8)", "settings": "ATP 10 µM"}, "MAP2K1 (human)": {"biological_target": "MAP2K1 (human) (UniProt Q02750)", "sequence (Q02750 whole entry, looked up)": "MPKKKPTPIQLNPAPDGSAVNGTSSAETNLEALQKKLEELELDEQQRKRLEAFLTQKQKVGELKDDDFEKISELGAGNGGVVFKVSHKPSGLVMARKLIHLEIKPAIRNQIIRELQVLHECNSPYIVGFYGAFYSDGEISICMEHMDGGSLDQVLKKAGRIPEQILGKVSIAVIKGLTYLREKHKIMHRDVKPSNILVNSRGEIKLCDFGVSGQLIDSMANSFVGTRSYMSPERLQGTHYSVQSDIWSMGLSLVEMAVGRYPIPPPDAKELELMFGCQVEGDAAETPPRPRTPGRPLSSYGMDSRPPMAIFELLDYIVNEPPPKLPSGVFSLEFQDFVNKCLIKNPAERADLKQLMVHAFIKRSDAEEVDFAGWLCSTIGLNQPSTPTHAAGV", "settings": "ATP 10 µM"}, "HIPK1 (human)": {"biological_target": "HIPK1 (human) (UniProt Q86Z02)", "sequence (Q86Z02 whole entry, looked up)": "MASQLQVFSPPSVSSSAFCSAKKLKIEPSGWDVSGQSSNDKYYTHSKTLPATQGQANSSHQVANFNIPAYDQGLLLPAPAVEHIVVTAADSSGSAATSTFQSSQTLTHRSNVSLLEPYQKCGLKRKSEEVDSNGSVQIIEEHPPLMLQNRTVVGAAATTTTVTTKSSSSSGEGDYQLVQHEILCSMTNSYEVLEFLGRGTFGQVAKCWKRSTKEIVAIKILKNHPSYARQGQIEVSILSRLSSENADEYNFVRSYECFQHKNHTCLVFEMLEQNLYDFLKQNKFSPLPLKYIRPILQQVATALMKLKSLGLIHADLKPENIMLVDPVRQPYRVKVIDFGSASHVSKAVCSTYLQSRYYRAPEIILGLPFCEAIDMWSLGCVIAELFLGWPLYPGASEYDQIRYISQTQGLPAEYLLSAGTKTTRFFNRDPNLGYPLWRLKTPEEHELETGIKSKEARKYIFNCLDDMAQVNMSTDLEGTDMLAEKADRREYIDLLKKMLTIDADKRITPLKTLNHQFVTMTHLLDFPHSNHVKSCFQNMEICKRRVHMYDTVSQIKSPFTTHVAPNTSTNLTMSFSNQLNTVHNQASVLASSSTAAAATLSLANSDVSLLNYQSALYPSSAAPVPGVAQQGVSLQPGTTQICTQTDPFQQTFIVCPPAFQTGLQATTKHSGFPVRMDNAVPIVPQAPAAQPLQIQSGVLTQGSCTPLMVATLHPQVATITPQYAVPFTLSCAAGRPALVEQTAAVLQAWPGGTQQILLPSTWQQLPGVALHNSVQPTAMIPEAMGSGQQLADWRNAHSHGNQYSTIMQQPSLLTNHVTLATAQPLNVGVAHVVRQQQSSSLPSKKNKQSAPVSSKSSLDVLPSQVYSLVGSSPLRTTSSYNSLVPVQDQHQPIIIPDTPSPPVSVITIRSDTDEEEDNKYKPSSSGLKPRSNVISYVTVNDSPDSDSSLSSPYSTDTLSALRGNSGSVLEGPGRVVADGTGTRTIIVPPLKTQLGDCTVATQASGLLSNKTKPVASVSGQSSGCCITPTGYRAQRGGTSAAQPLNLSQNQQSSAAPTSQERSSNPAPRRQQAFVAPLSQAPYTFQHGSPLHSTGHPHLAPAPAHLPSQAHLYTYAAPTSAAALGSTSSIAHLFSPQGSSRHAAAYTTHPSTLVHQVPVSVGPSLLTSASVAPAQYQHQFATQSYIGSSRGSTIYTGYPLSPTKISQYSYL", "settings": "ATP 45 µM"}, "PRKG1 (human)": {"biological_target": "PRKG1 (human) (UniProt Q13976)", "sequence (Q13976 whole entry, looked up)": "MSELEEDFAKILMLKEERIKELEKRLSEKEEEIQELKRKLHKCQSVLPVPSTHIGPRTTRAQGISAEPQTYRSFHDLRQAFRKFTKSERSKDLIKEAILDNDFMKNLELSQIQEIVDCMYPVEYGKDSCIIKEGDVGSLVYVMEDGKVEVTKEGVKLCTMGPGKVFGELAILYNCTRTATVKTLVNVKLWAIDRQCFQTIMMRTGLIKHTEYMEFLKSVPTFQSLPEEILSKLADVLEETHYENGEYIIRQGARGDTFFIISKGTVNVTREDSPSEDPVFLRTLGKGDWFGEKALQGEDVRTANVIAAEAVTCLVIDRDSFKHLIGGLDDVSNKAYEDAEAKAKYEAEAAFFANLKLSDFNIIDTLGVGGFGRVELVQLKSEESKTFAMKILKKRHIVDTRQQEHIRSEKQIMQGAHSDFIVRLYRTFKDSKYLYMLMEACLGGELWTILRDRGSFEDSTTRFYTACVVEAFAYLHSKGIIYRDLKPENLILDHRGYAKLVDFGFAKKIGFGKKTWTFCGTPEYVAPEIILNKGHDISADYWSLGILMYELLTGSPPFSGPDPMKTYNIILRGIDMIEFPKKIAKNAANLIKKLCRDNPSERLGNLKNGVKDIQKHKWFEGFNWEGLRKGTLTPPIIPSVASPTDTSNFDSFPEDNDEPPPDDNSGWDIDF", "settings": "ATP 90 µM"}, "BTK (human)": {"biological_target": "BTK (human) (UniProt Q06187)", "settings": "ATP 200 µM"}, "ITK (human)": {"biological_target": "ITK (human) (UniProt Q08881)", "settings": "ATP 200 µM"}, "MKNK2 (human)": {"biological_target": "MKNK2 (human) (UniProt Q9HBH9)", "settings": "ATP 120 µM"}, "MAP2K7 (human)": {"biological_target": "MAP2K7 (human) (UniProt O14733)", "settings": "ATP 10 µM"}, "EPHA8 (human)": {"biological_target": "EPHA8 (human) (UniProt P29322)", "settings": "ATP 200 µM"}, "PLK1 (human)": {"biological_target": "PLK1 (human) (UniProt P53350)", "settings": "ATP 70 µM"}, "STK4 (human)": {"biological_target": "STK4 (human) (UniProt Q13043)", "sequence (Q13043 whole entry, looked up)": "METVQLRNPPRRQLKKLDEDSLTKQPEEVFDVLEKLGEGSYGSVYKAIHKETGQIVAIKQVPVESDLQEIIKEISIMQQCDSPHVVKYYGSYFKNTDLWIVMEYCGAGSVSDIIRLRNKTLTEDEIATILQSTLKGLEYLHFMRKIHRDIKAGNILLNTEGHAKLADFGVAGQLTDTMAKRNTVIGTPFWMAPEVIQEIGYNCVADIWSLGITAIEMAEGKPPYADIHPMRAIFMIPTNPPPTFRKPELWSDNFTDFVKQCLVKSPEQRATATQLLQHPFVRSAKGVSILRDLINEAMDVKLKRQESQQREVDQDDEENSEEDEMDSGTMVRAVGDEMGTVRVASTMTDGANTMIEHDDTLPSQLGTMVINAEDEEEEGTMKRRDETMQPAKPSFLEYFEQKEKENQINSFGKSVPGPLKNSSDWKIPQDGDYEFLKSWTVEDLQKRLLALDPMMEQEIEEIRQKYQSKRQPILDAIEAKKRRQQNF", "settings": "ATP 90 µM"}, "CLK3 (human)": {"biological_target": "CLK3 (human) (UniProt P49761)", "settings": "ATP 90 µM"}, "TNK2 (human)": {"biological_target": "TNK2 (human) (UniProt Q07912)", "settings": "ATP 70 µM"}, "MAPK12 (human)": {"biological_target": "MAPK12 (human) (UniProt P53778)", "settings": "ATP 15 µM"}, "SRPK1 (human)": {"biological_target": "SRPK1 (human) (UniProt Q96SB4)", "settings": "ATP 10 µM"}, "PRKCD (human)": {"biological_target": "PRKCD (human) (UniProt Q05655)", "sequence (Q05655 whole entry, looked up)": "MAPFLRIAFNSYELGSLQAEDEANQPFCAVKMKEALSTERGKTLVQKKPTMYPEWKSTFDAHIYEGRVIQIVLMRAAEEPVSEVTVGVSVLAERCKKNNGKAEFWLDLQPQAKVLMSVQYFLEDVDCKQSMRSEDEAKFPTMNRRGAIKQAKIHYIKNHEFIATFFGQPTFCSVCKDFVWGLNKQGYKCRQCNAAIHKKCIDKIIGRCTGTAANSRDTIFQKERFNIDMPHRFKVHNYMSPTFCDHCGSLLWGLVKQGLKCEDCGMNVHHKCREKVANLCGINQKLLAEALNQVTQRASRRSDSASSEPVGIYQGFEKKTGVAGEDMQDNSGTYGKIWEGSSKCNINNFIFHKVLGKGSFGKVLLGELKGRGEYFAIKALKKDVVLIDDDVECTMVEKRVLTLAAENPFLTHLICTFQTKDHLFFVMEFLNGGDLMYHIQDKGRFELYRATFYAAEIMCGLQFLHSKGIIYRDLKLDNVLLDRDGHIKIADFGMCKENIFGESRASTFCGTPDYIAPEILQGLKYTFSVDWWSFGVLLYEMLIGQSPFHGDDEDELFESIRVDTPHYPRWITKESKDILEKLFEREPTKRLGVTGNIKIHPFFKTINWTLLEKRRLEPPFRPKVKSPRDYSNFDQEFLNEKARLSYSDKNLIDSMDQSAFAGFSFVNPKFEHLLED", "settings": "ATP 15 µM"}, "[1]": {"test_system": "EEF2K (human), O00418 [H23R]", "sequence (O00418 whole entry H23R, looked up)": "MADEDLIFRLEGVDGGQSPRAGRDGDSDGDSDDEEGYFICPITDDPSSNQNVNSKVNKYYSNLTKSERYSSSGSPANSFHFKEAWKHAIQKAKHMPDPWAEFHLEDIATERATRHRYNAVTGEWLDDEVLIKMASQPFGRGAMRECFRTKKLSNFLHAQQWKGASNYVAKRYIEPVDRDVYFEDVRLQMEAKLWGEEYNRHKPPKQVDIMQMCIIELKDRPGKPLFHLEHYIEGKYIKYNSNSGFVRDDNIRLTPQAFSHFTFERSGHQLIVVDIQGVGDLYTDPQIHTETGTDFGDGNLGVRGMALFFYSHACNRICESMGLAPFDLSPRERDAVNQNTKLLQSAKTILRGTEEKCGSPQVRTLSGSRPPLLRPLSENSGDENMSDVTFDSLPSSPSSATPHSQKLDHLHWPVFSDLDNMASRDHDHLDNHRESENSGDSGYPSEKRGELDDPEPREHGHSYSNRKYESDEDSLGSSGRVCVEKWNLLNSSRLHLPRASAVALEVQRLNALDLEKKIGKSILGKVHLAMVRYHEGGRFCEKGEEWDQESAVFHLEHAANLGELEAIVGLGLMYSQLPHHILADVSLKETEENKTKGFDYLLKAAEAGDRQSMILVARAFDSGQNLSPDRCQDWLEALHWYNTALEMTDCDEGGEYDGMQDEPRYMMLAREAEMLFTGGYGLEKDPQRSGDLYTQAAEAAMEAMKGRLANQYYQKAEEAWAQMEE", "settings": "ATP 15 µM"}, "PRKCA (human)": {"biological_target": "PRKCA (human) (UniProt P17252)", "settings": "ATP 45 µM"}, "GCK (human)": {"biological_target": "GCK (human) (UniProt Q12851)", "settings": "ATP 200 µM"}, "LIMK1 (human)": {"biological_target": "LIMK1 (human) (UniProt P53667)", "sequence (P53667 whole entry, looked up)": "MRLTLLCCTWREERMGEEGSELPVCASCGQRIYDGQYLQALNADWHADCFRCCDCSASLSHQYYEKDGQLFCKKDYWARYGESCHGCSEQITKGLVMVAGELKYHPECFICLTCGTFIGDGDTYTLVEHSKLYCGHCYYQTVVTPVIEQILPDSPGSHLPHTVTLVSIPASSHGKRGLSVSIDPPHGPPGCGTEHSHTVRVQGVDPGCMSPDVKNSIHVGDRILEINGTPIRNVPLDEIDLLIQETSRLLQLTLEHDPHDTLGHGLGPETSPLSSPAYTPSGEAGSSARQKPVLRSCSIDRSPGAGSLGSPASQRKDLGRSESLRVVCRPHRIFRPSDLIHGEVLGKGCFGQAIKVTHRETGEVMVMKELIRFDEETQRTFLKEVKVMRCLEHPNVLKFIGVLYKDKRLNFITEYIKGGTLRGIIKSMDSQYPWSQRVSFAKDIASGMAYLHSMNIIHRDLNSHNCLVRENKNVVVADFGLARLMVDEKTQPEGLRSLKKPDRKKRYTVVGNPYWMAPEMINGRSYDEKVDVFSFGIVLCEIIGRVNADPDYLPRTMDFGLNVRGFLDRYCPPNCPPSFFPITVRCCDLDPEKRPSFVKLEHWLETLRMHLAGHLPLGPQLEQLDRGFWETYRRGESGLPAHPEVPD", "settings": "ATP 15 µM"}, "PKN2 (human)": {"biological_target": "PKN2 (human) (UniProt Q16513)", "settings": "ATP 15 µM"}, "SRPK2 (human)": {"biological_target": "SRPK2 (human) (UniProt P78362)", "settings": "ATP 10 µM"}, "CHUK (human)": {"biological_target": "CHUK (human) (UniProt O15111)", "settings": "ATP 10 µM"}, "SIK1 (human)": {"biological_target": "SIK1 (human) (UniProt P57059)", "settings": "ATP 45 µM"}, "CDK5 CDK5R1 p35 (human)": {"biological_target": "CDK5 CDK5R1 p35 (human) (UniProt Q00535+Q15078)", "settings": "ATP 15 µM"}, "YES1 (human)": {"biological_target": "YES1 (human) (UniProt P07947)", "settings": "ATP 45 µM"}, "STK24 (human)": {"biological_target": "STK24 (human) (UniProt Q9Y6E0)", "settings": "ATP 15 µM"}, "CAMK4 (human)": {"biological_target": "CAMK4 (human) (UniProt Q16566)", "settings": "ATP 10 µM"}, "CAMK2D (human)": {"biological_target": "CAMK2D (human) (UniProt Q13557)", "settings": "ATP 10 µM"}, "FGFR1 (human)": {"biological_target": "FGFR1 (human) (UniProt P11362)", "settings": "ATP 200 µM"}, "TYRO3 (human)": {"biological_target": "TYRO3 (human) (UniProt Q06418)", "settings": "ATP 45 µM"}}, "note": "Values joined by “and” are separate entries in the source; they are usually repeats but may differ in a detail not shown here. Equal values may be shown once."}
{"smiles": "O=C1Nc2ccccc2/C1=C1\\Nc2ccccc2\\C1=N/O", "values": [{"measurement": "residual activity", "setting": "LYN (human); compound 1.0 µM", "result": 8, "unit": "%"}, {"measurement": "residual activity", "setting": "LYN (human); compound 10.0 µM", "result": 2, "unit": "%"}, {"measurement": "residual activity", "setting": "HIPK3 (human); compound 1.0 µM", "result": 88, "unit": "%"}, {"measurement": "residual activity", "setting": "HIPK3 (human); compound 10.0 µM", "result": 19, "unit": "%"}, {"measurement": "residual activity", "setting": "TLK2 (human); compound 1.0 µM", "result": 60, "unit": "%"}, {"measurement": "residual activity", "setting": "TLK2 (human); compound 10.0 µM", "result": 14, "unit": "%"}, {"measurement": "residual activity", "setting": "MAP2K1 (human); compound 1.0 µM", "result": 64, "unit": "%"}, {"measurement": "residual activity", "setting": "MAP2K1 (human); compound 10.0 µM", "result": 55, "unit": "%"}, {"measurement": "residual activity", "setting": "HIPK1 (human); compound 1.0 µM", "result": 90, "unit": "%"}, {"measurement": "residual activity", "setting": "HIPK1 (human); compound 10.0 µM", "result": 73, "unit": "%"}, {"measurement": "residual activity", "setting": "PRKG1 (human); compound 1.0 µM", "result": "79% and 77%"}, {"measurement": "residual activity", "setting": "PRKG1 (human); compound 10.0 µM", "result": "45% and 67%"}, {"measurement": "residual activity", "setting": "BTK (human); compound 1.0 µM", "result": 31, "unit": "%"}, {"measurement": "residual activity", "setting": "BTK (human); compound 10.0 µM", "result": 4, "unit": "%"}, {"measurement": "residual activity", "setting": "ITK (human); compound 1.0 µM", "result": 19, "unit": "%"}, {"measurement": "residual activity", "setting": "ITK (human); compound 10.0 µM", "result": 1, "unit": "%"}, {"measurement": "residual activity", "setting": "MKNK2 (human); compound 1.0 µM", "result": 62, "unit": "%"}, {"measurement": "residual activity", "setting": "MKNK2 (human); compound 10.0 µM", "result": 18, "unit": "%"}, {"measurement": "residual activity", "setting": "MAP2K7 (human); compound 1.0 µM", "result": 52, "unit": "%"}, {"measurement": "residual activity", "setting": "MAP2K7 (human); compound 10.0 µM", "result": 7, "unit": "%"}, {"measurement": "residual activity", "setting": "EPHA8 (human); compound 1.0 µM", "result": 84, "unit": "%"}, {"measurement": "residual activity", "setting": "EPHA8 (human); compound 10.0 µM", "result": 43, "unit": "%"}, {"measurement": "residual activity", "setting": "PLK1 (human); compound 1.0 µM", "result": 83, "unit": "%"}, {"measurement": "residual activity", "setting": "PLK1 (human); compound 10.0 µM", "result": 103, "unit": "%"}, {"measurement": "residual activity", "setting": "STK4 (human); compound 1.0 µM", "result": 8, "unit": "%"}, {"measurement": "residual activity", "setting": "STK4 (human); compound 10.0 µM", "result": 2, "unit": "%"}, {"measurement": "residual activity", "setting": "CLK3 (human); compound 1.0 µM", "result": 79, "unit": "%"}, {"measurement": "residual activity", "setting": "CLK3 (human); compound 10.0 µM", "result": 54, "unit": "%"}, {"measurement": "residual activity", "setting": "TNK2 (human); compound 1.0 µM", "result": 34, "unit": "%"}, {"measurement": "residual activity", "setting": "TNK2 (human); compound 10.0 µM", "result": 4, "unit": "%"}, {"measurement": "residual activity", "setting": "MAPK12 (human); compound 1.0 µM", "result": 95, "unit": "%"}, {"measurement": "residual activity", "setting": "MAPK12 (human); compound 10.0 µM", "result": 84, "unit": "%"}, {"measurement": "residual activity", "setting": "SRPK1 (human); compound 1.0 µM", "result": 90, "unit": "%"}, {"measurement": "residual activity", "setting": "SRPK1 (human); compound 10.0 µM", "result": 66, "unit": "%"}, {"measurement": "residual activity", "setting": "PRKCD (human); compound 1.0 µM", "result": 85, "unit": "%"}, {"measurement": "residual activity", "setting": "PRKCD (human); compound 10.0 µM", "result": 80, "unit": "%"}, {"measurement": "residual activity", "setting": "[1]; compound 1.0 µM", "result": 109, "unit": "%"}, {"measurement": "residual activity", "setting": "[1]; compound 10.0 µM", "result": 93, "unit": "%"}, {"measurement": "residual activity", "setting": "PRKCA (human); compound 1.0 µM", "result": 93, "unit": "%"}, {"measurement": "residual activity", "setting": "PRKCA (human); compound 10.0 µM", "result": 86, "unit": "%"}, {"measurement": "residual activity", "setting": "GCK (human); compound 1.0 µM", "result": 13, "unit": "%"}, {"measurement": "residual activity", "setting": "GCK (human); compound 10.0 µM", "result": 1, "unit": "%"}, {"measurement": "residual activity", "setting": "LIMK1 (human); compound 1.0 µM", "result": 61, "unit": "%"}, {"measurement": "residual activity", "setting": "LIMK1 (human); compound 10.0 µM", "result": 21, "unit": "%"}, {"measurement": "residual activity", "setting": "PKN2 (human); compound 1.0 µM", "result": 91, "unit": "%"}, {"measurement": "residual activity", "setting": "PKN2 (human); compound 10.0 µM", "result": 48, "unit": "%"}, {"measurement": "residual activity", "setting": "SRPK2 (human); compound 1.0 µM", "result": 96, "unit": "%"}, {"measurement": "residual activity", "setting": "SRPK2 (human); compound 10.0 µM", "result": 67, "unit": "%"}, {"measurement": "residual activity", "setting": "CHUK (human); compound 1.0 µM", "result": 76, "unit": "%"}, {"measurement": "residual activity", "setting": "CHUK (human); compound 10.0 µM", "result": 57, "unit": "%"}, {"measurement": "residual activity", "setting": "SIK1 (human); compound 1.0 µM", "result": 43, "unit": "%"}, {"measurement": "residual activity", "setting": "SIK1 (human); compound 10.0 µM", "result": 8, "unit": "%"}, {"measurement": "residual activity", "setting": "CDK5 CDK5R1 p35 (human); compound 1.0 µM", "result": 5, "unit": "%"}, {"measurement": "residual activity", "setting": "CDK5 CDK5R1 p35 (human); compound 10.0 µM", "result": 1, "unit": "%"}, {"measurement": "residual activity", "setting": "YES1 (human); compound 1.0 µM", "result": 17, "unit": "%"}, {"measurement": "residual activity", "setting": "YES1 (human); compound 10.0 µM", "result": 0, "unit": "%"}, {"measurement": "residual activity", "setting": "STK24 (human); compound 1.0 µM", "result": 42, "unit": "%"}, {"measurement": "residual activity", "setting": "STK24 (human); compound 10.0 µM", "result": 10, "unit": "%"}, {"measurement": "residual activity", "setting": "CAMK4 (human); compound 1.0 µM", "result": 66, "unit": "%"}, {"measurement": "residual activity", "setting": "CAMK4 (human); compound 10.0 µM", "result": 10, "unit": "%"}, {"measurement": "residual activity", "setting": "CAMK2D (human); compound 1.0 µM", "result": 10, "unit": "%"}, {"measurement": "residual activity", "setting": "CAMK2D (human); compound 10.0 µM", "result": 2, "unit": "%"}, {"measurement": "residual activity", "setting": "FGFR1 (human); compound 1.0 µM", "result": 3, "unit": "%"}, {"measurement": "residual activity", "setting": "FGFR1 (human); compound 10.0 µM", "result": -1, "unit": "%"}, {"measurement": "residual activity", "setting": "TYRO3 (human); compound 1.0 µM", "result": 62, "unit": "%"}, {"measurement": "residual activity", "setting": "TYRO3 (human); compound 10.0 µM", "result": 15, "unit": "%"}]}
